We go through 33 compounds from ChEMBL document CHEMBL1130377 (J Med Chem, 1997).

Molecules are shown by their SMILES.

The test addresses Melatonin receptor (Gallus gallus, UniProt P49288+P51050+P49285). The test is described as follows: Binding affinity against chicken brain melatonin receptors using 2-[125I]iodomelatonin as radioligand.
On to `CC(=O)NCCc1c[nH]c2ccccc12`, for which the “Log Ki” value was -6.31.

For `CCC(=O)NCCc1cc(Br)ccc1OC`, the “Log Ki” value is -8.94. For the compound `CCOc1ccc2ccccc2c1CCNC(=O)C(F)(F)F`, the “Log Ki” value was -8.23. `CC(=O)NCCc1cccc2ccc(O)cc12`: the “Log Ki” value is reported as -7.52. With `COc1ccc(C)cc1CCNC(C)=O`, the “Log Ki” value is -6.71.

Regarding `CCCC(=O)NCCc1c[nH]c2cc(F)c(OC)cc12`, the “Log Ki” value was -9.85. The figure for `CCCCC(=O)NCCc1cccc2ccccc12` is -6.62; for `CCCNC(=O)NCCc1c[nH]c2ccc(OC)cc12` it is -8.17; for `CCC(=O)NCCc1cccc2ccc(OC)cc12` it is -9.74. `CCOc1ccc2ccccc2c1CCNC(C)=O`: the “Log Ki” value is given as -8.45.

For `COc1ccc(C)cc1CCNC(=O)C(F)(F)F`, the “Log Ki” value is given as -6.64.

Regarding `COc1ccc2[nH]cc(CCNC(=O)C3CC3)c2c1`, the “Log Ki” value is reported as -8.6.

Take `COc1cc2c(CCNC(=O)C3CC3)c[nH]c2cc1F`: the “Log Ki” value is recorded as -8.6. For `COc1ccc2cccc(CCNC(=O)CBr)c2c1`, the “Log Ki” value is listed as -9.92.

As to `COc1ccc2cccc(CCNC(=O)C3CC3)c2c1`, the “Log Ki” value is reported as -7.71. With `COc1ccc2cccc(CONC(C)=O)c2c1`, the “Log Ki” value is given as -8.77. The value for `COc1ccc2ccccc2c1CCNC(=O)C(F)(F)F` was -9.26. As to `CCOc1ccc2ccccc2c1CCNC(=O)CC`, the “Log Ki” value is -8.97.

Consider `COc1ccc(-c2ccccc2)cc1CCNC(C)=O`, for which the “Log Ki” value is reported as -6.54. For the compound `CCCCC(=O)NCCc1cccc2ccc(OC)cc12`, the “Log Ki” value is listed as -7.35. Regarding `COc1ccc(OC)c(CCNC(=O)C(F)(F)F)c1`, the “Log Ki” value is given as -6.94. As to `CCC(=O)NCCc1c(OC)ccc2cc(C)ccc12`, the “Log Ki” value is recorded as -7.19. Take `CCCC(=O)NCCc1cccc2ccc(OC)cc12`: the “Log Ki” value is -10.53. `COc1cc2ccccc2c2c1CC(NC(C)=O)CC2` (stereo not drawn): the “Log Ki” value is on record as -6.67. The value for `COc1cccc(CCNC(=O)C(F)(F)F)c1` was -5.72; that for `COc1ccc(OC)c(CCNC(C)=O)c1` was -7.15. The value for `COc1ccc2ccc(OC)c(CCNC(=O)C(F)(F)F)c2c1` was -9.41. `COc1ccc2ccccc2c1CONC(C)=O`: the “Log Ki” value is -7.25.

Take `CCC(=O)NCCc1c(OC)ccc2ccc(OC)cc12`: the “Log Ki” value is reported as -10.14. Consider `COc1ccc2ccc(OC)c(CCNC(C)=O)c2c1`, for which the “Log Ki” value is listed as -9.62.

For the compound `COc1ccc2cccc(CCNC=O)c2c1`, the “Log Ki” value is -8.03. `CCC(=O)NCCc1cc(OC)cc2ccc(OC)cc12`: the “Log Ki” value was -7.92.

As for `COc1ccc2cccc3c2c1CC(NC(C)=O)C3` (stereo not drawn), the “Log Ki” value is -7.46.
